Test results taken from article PMC7576608, “Mechanisms of telomerase inhibition by oxidized and therapeutic dNTPs” (Nature Communications, 2020).
Values joined by “and” are separate entries in the source; they are usually repeats but may differ in a detail not shown here. Equal entries are not always repeated. Where two headings read alike, the source gives them in different places.

Target: telomerase (Homo sapiens, UniProt O14746)
Experiment: Telomerase repeat processivity IC50: modified dNTP titrated into reactions with all four natural dNTPs
Assay type: biochemical
Set-up: made in house; anti-FLAG immunopurification, eluted with 3xFLAG peptide
Conditions: for YIntercept (line fit of ln(100-%LB) vs # telomere repeats) / ln(100-%LB): n1-n3
Source text: In order to better understand the ability of modified dNTPs to compete with natural dNTPs for telomerase utilization, we added modified dNTPs to reactions containing all four natural dNTPs. […] The calculated IC50 determines the concentration required to reduce repeat processivity in the bulk reactions by half. However, it is important to note that bulk experiments cannot distinguish effects on individual telomeres, since extended telomeres mask unextended telomeres. Incorporation of a chain terminator during any step will terminate extension of the affected telomere, and just five critically short telomeres are sufficient to trigger senescence. Therefore, repeat processivity IC50 values are not necessarily an indicator of the inhibitory potency, but provide information on selectivity for modified dNTPs compared to natural dNTPs. […] The ability to purify sufficient quantities of tcTERT enables characterization of the catalytic nucleotide addition by pre-steady-state single turnover kinetics using a defined DNA–RNA primer–template substrate. The catalytic efficiency of incorporating a single dNTP is measured by dividing the observed nucleotide incorporation rate constant, kpol, by the equilibrium dissociation constant for dNTP binding to the tcTERT–primer–template complex (Kd)[44].
The reactions were started by the addition of 3 μl of immunopurified telomerase eluent, incubated at 37 °C for 1 h, then terminated with 2 μl of […] and heat inactivated at 65 °C for 20 min. An equal volume of loading buffer (94% formamide, 0.1× TBE, 0.1% bromophenol blue, 0.1% xylene cyanol) was added to the reaction eluent. The samples were heat denatured for 10 min at 100 °C and loaded onto a 14% denaturing acrylamide gel (7 M urea, 1× TBE) and electrophoresed for 90 min at constant 38 W. Samples were imaged using a Typhoon phosphorimager (GE Healthcare). Percent primer extension was calculated with ImageQuant TL 8.2 by measuring the intensity of each product band and dividing by the total radioactivity in the lane or total products, as indicated in the figure legends.
The processivity was calculated as described[40],[67]. Repeat processivity from the direct telomerase extension assays was calculated as R1/2 (equivalent to the half-time for decay in an exponential time course), which represents the median length of DNA product formed, expressed in terms of number of telomere repeats. First, the total volume counts for each product band extend by one or more telomere repeats were obtained using Image Quant TL. The volume counts were then normalized by dividing by the number of radiolabeled guanosines incorporated into the extended products based on the number of repeats added, termed corrected volume (corr vol). The “percent left behind” (%LB) was calculated for each product band by summing the counts for that product band and for every product band below (shorter products), divided by the total counts for the lane, and then multiplied by 100. The natural log of (100−%LB) was calculated and then plotted vs. repeat number for each product length. A linear regression line was fit to the data to determine the slope of the line. The R1/2 value was calculated by dividing −ln(2) by the slope of each fitted line (R1/2 = −ln(2)/slope).
Supplementary Fig 8. IC50 values for telomerase processivity inhibition. Telomerase reactions were conducted with cellular relevant concentrations of all four natural dNTPs and increasing concentrations of the modified dNTP analog from 0 to 10,000 μM to calculate. (a) The natural log of (100-%LB) was plotted vs repeat number. A straight line was fit to the data and the R1/2 value was calculated by dividing –ln(2) by the slope of each line. Plots shown from one experiment are […]

[1] = cellular relevant natural dNTPs, modified dNTP titrated 0 to 10,000 μM, based on repeat processivity, mean ± SD, read-out: Telomerase processivity IC50
[2] = fit of R 1/2 vs log(concentration), 8-oxo-dGTP, replicates N1-N4
[3] = log of processivity IC50 (concentration in μM), Supplementary Fig 8b, read-out: Log IC50 (converted)
[4] = dose-response fit of processivity R 1/2, individual replicates
[5] = dose-response fit of processivity R 1/2 vs log(concentration), individual replicates

telomerase, sequence (O14746 whole entry): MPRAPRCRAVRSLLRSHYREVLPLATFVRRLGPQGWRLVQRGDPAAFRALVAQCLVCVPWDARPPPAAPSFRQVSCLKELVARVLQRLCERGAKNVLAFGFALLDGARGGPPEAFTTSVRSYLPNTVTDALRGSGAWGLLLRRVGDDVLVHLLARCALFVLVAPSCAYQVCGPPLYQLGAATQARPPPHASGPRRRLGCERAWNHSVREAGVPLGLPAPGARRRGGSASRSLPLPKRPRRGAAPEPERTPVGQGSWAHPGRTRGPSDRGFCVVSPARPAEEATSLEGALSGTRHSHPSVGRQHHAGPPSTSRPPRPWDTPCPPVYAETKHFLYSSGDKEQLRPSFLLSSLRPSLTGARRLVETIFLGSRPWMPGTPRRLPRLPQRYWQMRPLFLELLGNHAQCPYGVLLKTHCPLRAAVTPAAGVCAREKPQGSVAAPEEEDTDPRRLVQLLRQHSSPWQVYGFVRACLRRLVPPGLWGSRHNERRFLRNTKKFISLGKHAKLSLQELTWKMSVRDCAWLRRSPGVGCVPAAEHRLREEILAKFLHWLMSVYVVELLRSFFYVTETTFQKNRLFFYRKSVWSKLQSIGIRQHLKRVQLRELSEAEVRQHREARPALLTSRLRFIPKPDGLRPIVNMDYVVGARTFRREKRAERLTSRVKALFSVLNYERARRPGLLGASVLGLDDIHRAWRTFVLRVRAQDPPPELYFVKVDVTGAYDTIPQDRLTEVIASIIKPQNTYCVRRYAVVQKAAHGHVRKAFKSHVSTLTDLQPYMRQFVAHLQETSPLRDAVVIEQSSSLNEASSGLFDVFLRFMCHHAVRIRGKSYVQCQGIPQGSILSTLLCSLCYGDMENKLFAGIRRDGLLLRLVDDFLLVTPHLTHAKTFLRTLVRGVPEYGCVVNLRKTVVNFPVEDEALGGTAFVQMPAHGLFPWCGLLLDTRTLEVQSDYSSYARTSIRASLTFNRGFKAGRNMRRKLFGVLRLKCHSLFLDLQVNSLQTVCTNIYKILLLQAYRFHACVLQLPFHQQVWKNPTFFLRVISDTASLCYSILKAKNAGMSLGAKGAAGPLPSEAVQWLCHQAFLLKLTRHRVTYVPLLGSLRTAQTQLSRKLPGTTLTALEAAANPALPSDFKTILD

With `Nc1nc2c([nH]c(=O)n2C2CC(O)C(COP(=O)(O)OP(=O)(O)OP(=O)(O)O)O2)c(=O)[nH]1` (centres unmarked) [8-oxo-dGTP] as the molecule, how does the “Processivity R 1/2” value (8-oxo-dGTP 156.25 μM, replicates n1-n4) read?
Its value is 3.18 and 2.53 and 3.23.

And the “YIntercept (line fit of ln(100-%LB) vs # telomere repeats)” value (8-oxo-dGTP 160μM)?
The value was 3.28 and 3.52 and 3.30.

What about the “ln(100-%LB)” value (8-oxo-dGTP 160μM, telomere repeat 1) of the same molecule?
The value was 3.67 and 3.81 and 3.65.

And the “ln(100-%LB)” value (8-oxo-dGTP 160μM, telomere repeat 2)?
Its value is 3.11 and 3.28 and 3.14.

What about the “ln(100-%LB)” value (8-oxo-dGTP 160μM, telomere repeat 3) of the same molecule?
Its value is 2.62 and 2.68 and 2.65.

And the “ln(100-%LB)” value (8-oxo-dGTP 160μM, telomere repeat 4)?
The value was 2.38 and 2.37 and 2.44.

And the “ln(100-%LB)” value (8-oxo-dGTP 160μM, telomere repeat 5)?
Its value is 2.10 and 2.03 and 2.19.

What about the “ln(100-%LB)” value (8-oxo-dGTP 160μM, telomere repeat 6) of the same molecule?
The value was 1.76 and 1.70 and 1.93.

What about the “ln(100-%LB)” value (8-oxo-dGTP 160μM, telomere repeat 7) of the same molecule?
The value was 1.44 and 1.37 and 1.64.

What about the “ln(100-%LB)” value (8-oxo-dGTP 160μM, telomere repeat 8) of the same molecule?
The value was 1.22 and 1.14 and 1.43.

And the “ln(100-%LB)” value (8-oxo-dGTP 160μM, telomere repeat 9)?
The value was 0.99 and 0.88 and 1.23.

And the “ln(100-%LB)” value (8-oxo-dGTP 160μM, telomere repeat 10)?
Its value is 0.74 and 0.58 and 1.00.

And the “YIntercept (line fit of ln(100-%LB) vs # telomere repeats)” value (8-oxo-dGTP 625μM)?
Its value is 3.24 and 3.54 and 3.75.

What about the “Processivity R 1/2” value (8-oxo-dGTP 625 μM, replicates n1-n4) of the same molecule?
Its value is 2.67 and 2.52 and 3.04.

And the “ln(100-%LB)” value (8-oxo-dGTP 625μM, telomere repeat 1)?
Its value is 3.67 and 3.79 and 3.89.

And the “ln(100-%LB)” value (8-oxo-dGTP 625μM, telomere repeat 2)?
Its value is 3.11 and 3.31 and 3.40.

And the “ln(100-%LB)” value (8-oxo-dGTP 625μM, telomere repeat 3)?
Its value is 2.62 and 2.84 and 2.91.

What about the “ln(100-%LB)” value (8-oxo-dGTP 625μM, telomere repeat 4) of the same molecule?
The value was 2.38 and 2.60 and 2.62.

And the “ln(100-%LB)” value (8-oxo-dGTP 625μM, telomere repeat 5)?
The value was 2.10 and 2.36 and 2.34.

What about the “ln(100-%LB)” value (8-oxo-dGTP 625μM, telomere repeat 6) of the same molecule?
The value was 1.76 and 2.09 and 2.01.

What about the “ln(100-%LB)” value (8-oxo-dGTP 625μM, telomere repeat 7) of the same molecule?
The value was 1.44 and 1.77 and 1.66.

And the “ln(100-%LB)” value (8-oxo-dGTP 625μM, telomere repeat 8)?
The value was 1.22 and 1.56 and 1.41.

What about the “ln(100-%LB)” value (8-oxo-dGTP 625μM, telomere repeat 9) of the same molecule?
The value was 0.99 and 1.31 and 1.14.

And the “ln(100-%LB)” value (8-oxo-dGTP 625μM, telomere repeat 10)?
The value was 0.74 and 1.05 and 0.85.

What about the “ln(100-%LB)” value (8-oxo-dGTP 625μM, telomere repeat 11) of the same molecule?
The value was 0.51 and 0.79 and 0.55.

What about the “ln(100-%LB)” value (8-oxo-dGTP 625μM, telomere repeat 12) of the same molecule?
The value was 0.32 and 0.58 and 0.29.

What about the “YIntercept (line fit of ln(100-%LB) vs # telomere repeats)” value (8-oxo-dGTP 2500μM) of the same molecule?
The value was 4.49 and 4.30 and 4.68.

And the “Processivity R 1/2” value (8-oxo-dGTP 2500 μM, replicates n1-n4)?
Its value is 0.72 and 0.43 (2×) and 0.55.

And the “ln(100-%LB)” value (8-oxo-dGTP 2500μM, telomere repeat 1)?
Its value is 3.44 and 3.70 and 3.07.

What about the “Processivity R 1/2” value (8-oxo-dGTP 5000 μM, replicates n1-n4) of the same molecule?
The value was 0.

And the “Processivity R 1/2” value (8-oxo-dGTP 10000 μM, replicates n1-n4)?
The value was 0.

And the IC50 [1]?
Its IC50 is 1690 ± 172 µM.

What about the LogIC50 (fit of R 1/2 vs log(concentration μM), 8-oxo-dGTP, replicates N1-N4) of the same molecule?
Its LogIC50 is 3.24 and 3.27 and 3.16 and 3.23.

What about the “Bottom (best-fit value)” value [2] of the same molecule?
The value was 0.33 and -0.00509 and -0.0042 and -0.0316.

What about the HillSlope [2] of the same molecule?
The HillSlope was -4.72 and -6.07 and -3.06 and -3.86.

What about the “Span (best-fit value)” value [2] of the same molecule?
The value was 2.87 and 3.02 and 2.71 and 3.30.

What about the “Top (best-fit value)” value [2] of the same molecule?
The value was 3.21 and 3.01 and 2.70 and 3.27.

And the IC50 [3]?
Its IC50 is 2000 µM.

And the IC50 (repeat processivity R 1/2, 8-oxo-dGTP, single replicates N1-N4, read-out: IC50)?
The IC50 was 1740 µM and 1870 µM and 1460 µM and 1690 µM.

How did the IC50 [1] turn out when `Cc1cn([C@H]2C[C@H](N=[N+]=[N-])[C@@H](CO[P@](=O)(O)O[P@](=O)(O)OP(=O)(O)O)O2)c(=O)[nH]c1=O` [AZT-TP] was run?
Its IC50 is 402 ± 169 µM.

And the “Best-fit values HillSlope” value [4]?
The value was -0.83 and -0.51.

And the “Best-fit values Span” value [4]?
Its value is 2.37 and 4.19.

What about the “Best-fit values LogIC50” value (dose-response fit of processivity R 1/2, log of concentration in μM, individual replicates) of the same molecule?
The value was 2.72 and 2.45.

And the “Best-fit values Bottom” value [5]?
Its value is -0.33 and -0.59.

And the “Best-fit values Top” value [5]?
Its value is 2.04 and 3.59.

What about the IC50 [3] of the same molecule?
The IC50 was 501 µM.

And the “Processivity R 1/2” value (modified dNTP concentration 31.25 μM, individual replicates n1-n3)?
Its value is 1.70 and 1.35.

And the “Processivity R 1/2” value (modified dNTP concentration 500 μM, individual replicates)?
Its value is 0.80 and 0.64.

What about the “Processivity R 1/2” value (modified dNTP concentration 1000 μM, individual replicates) of the same molecule?
The value was 0.57 and 0.61.

And the “Processivity R 1/2” value (modified dNTP concentration 2000 μM, individual replicates)?
The value was 0.00 and 0.49.

What about the “Processivity R 1/2” value (modified dNTP concentration 4000 μM, individual replicates) of the same molecule?
The value was 0.00.

What about the IC50 (repeat processivity R 1/2, individual replicates N1-N3, read-out: Best-fit values IC50) of the same molecule?
Its IC50 is 521 µM and 282 µM.

And the IC50 (repeat processivity R 1/2, mean of replicates, read-out: Mean IC50)?
The IC50 was 402 µM.
